Earlier results in patent US20130344087A1, “COMBINATIONS OF ANTI-S1P ANTIBODIES AND SHPINGOLIPID PATHWAY INHIBITORS” (priority 2010, published 2013).

Key:
ceramide synthase 2 = biological target: T1, ceramide synthase 2 (Homo sapiens, UniProt Q96G23); conditions: human pulmonary artery endothelial cells
T1 construct: endogenous in cells; host or cells: human pulmonary artery endothelial cells
T1 sequence (Q96G23 1-380): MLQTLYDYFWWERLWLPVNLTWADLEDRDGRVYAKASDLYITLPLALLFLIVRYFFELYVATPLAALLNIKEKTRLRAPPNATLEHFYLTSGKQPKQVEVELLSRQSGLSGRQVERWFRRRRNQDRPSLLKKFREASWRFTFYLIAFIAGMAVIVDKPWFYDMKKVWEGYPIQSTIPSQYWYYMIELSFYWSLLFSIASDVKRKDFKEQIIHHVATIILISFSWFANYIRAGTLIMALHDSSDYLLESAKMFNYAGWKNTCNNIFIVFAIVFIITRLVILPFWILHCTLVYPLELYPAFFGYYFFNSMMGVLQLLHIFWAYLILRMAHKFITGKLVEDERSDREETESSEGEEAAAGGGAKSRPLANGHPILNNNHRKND

ERK2 = ERK2 (Homo sapiens, UniProt P28482); conditions: at concentrations up to 60 μM
PI3-kinase = conditions: at concentrations up to 60 μM
PKCα = PKCα (Homo sapiens, UniProt P17252); conditions: at concentrations up to 60 μM
[1] = system: human cancer cell lines (T-24, MCF-7, NCl/ADR, and MCF-7NP); conditions: range across cell lines, read-out: IC50, inhibition of proliferation
SPHK 2 = biological target: T2, SPHK 2 (Homo sapiens, UniProt Q9NRA0)
T2 sequence (Q9NRA0 1-654): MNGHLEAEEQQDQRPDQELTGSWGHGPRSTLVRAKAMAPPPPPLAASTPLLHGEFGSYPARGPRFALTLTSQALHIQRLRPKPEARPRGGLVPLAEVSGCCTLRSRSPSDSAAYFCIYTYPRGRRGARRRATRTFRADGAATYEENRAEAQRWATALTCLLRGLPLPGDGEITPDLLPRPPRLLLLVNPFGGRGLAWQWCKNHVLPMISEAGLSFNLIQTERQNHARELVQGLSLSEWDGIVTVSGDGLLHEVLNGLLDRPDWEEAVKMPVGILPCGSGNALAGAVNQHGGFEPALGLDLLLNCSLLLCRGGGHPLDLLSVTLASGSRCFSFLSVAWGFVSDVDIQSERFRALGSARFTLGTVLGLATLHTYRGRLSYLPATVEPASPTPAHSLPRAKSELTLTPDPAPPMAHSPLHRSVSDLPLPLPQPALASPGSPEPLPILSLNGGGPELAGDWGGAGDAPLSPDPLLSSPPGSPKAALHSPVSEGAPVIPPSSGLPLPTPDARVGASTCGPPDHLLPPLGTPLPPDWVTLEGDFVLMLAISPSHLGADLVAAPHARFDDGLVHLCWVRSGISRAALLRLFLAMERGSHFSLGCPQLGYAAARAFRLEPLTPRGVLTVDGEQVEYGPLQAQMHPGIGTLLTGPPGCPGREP

[2] = system: human leukemia U937 cells
[3] = system: human leukemia Jurkat cells
[4] = system: leukemic blasts isolated from patients with acute myelogenous leukemia; conditions: blasts from AML patients
[5] = system: normal peripheral blood mononuclear leukocytes
AML xenograft tumors = conditions: in vivo

Sequence of ERK2 (P28482 whole entry, species assumed): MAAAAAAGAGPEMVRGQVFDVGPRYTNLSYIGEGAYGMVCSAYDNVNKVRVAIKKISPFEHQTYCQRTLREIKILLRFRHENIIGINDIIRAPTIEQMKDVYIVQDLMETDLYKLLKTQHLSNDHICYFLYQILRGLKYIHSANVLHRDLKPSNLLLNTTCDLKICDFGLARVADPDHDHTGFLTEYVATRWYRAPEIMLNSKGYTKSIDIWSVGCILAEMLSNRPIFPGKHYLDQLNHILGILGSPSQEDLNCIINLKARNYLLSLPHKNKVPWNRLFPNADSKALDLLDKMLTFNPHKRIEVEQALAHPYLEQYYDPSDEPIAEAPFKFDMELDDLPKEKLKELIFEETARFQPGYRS

CCCCCCCCc1ccc(CCC(N)(CO)CO)cc1.Cl [FTY720, 2-amino-2[2-(4-octylphenyl)ethyl]propane-1,3-diol hydrochloride]
cellular levels of dihydroceramides, ceramides, sphingosine, and S1P (ceramide synthase 2): decreased cellular levels | inhibition of ceramide synthase 2 (ceramide synthase 2): inhibit ceramide synthase 2 | levels of dihydrosphingosine and dihydrosphingosine 1-phosphate (DHS1P) (ceramide synthase 2; mediated by SPHK1 activity): increased levels

Oc1ccc(Nc2nc(-c3ccc(Cl)cc3)cs2)cc1 [SPHK I2, 4-[[4-(4-chlorophenyl)-2-thiazolyl]amino]-phenol]
inhibition of ERK2 (ERK2): no inhibition | inhibition of PI3-kinase (PI3-kinase): no inhibition | inhibition of PKCα (PKCα): no inhibition | IC50 [1]: 0.9 to 4.6 µM

CCCCCCCCCCCCCCC[C@H](O)[C@@H](N)CO [safingol, L-threo-dihydrosphingosine]
cytotoxicity to leukemia cells (leukemia cells): cytotoxic

CCCCCc1ccc(/C=C/[C@H](O)[C@@H](CO)NC)cc1 [SK1-I, (2R,3S,4E)-N-methyl-5-(4′-pentylphenyl)-2-aminopent-4-ene-1,3-diol]
inhibition of SPHK 2 (SPHK 2): does not inhibit | inhibition of PKC (PKC): does not inhibit | growth and survival of U937 cells [2]: decrease growth and survival | growth and survival of Jurkat cells [3]: decrease growth and survival | induction of apoptosis in leukemic blasts [4]: potently induces apoptosis | effect on normal peripheral blood mononuclear leukocytes [5]: sparing | growth of AML xenograft tumors (AML xenograft tumors): markedly reduces growth | S1P levels (S1P and ceramide levels): decreases S1P levels | levels of proapoptotic precursor ceramide (S1P and ceramide levels): increases levels
